Patent US11752091B2, “Composition for strengthening skin barrier, moisturizing skin or anti-aging” (COSMAX, INC., priority 2020, dated 2023)

Columns and labels:
Settings in all cases: 37° C., 48 hours (examined up to 72 hours); well color change to purple or red
S. mitis (CX-8) = experiment: Substance utilization by isolated strains (BioLOG GP2, API 50); format: cell-based, Streptococcus mitis
Procedure: (§1) To analyze substance utilization by the isolated strains (Streptococcus pneumoniae, Streptococcus infantis, and Streptococcus mitis), tests were conducted in the following manner. BioLOG GP2 and API 50 were used in determining the substance utilization, and testing was performed using testing methods provided by Omnilog and Biomeriuse. The culturing temperature and media suitable to corresponding strains were selected, and 5 among cluster colonies incubated for 48 hours were taken and suspended in reagents before use. The inoculation amount was 150 μl. As the suspension, components of kits provided by various manufacturers were used. When the strains are yet to be inoculated, the suspension is in a transparent liquid phase. Inoculated plates and strips were incubated at 37° C. for 48 hours, and then the incubation of up to 72 hours was examined. Wells were in a transparent liquid phase at the time of inoculating, but the colors of the wells changed to purple or red, and the color-changed wells were determined to be positive.

S. pneumoniae (CX-2) = format: cell-based, Streptococcus pneumoniae
Procedure: as §1

S. infantis (CX-4) = experiment: Substance utilization by isolated strains (BioLOG GP2, API 50); format: cell-based, Streptococcus infantis
Procedure: as §1

| Compound | substance utilization, S. mitis (CX-8) (S. mitis (CX-8)) | substance utilization, S. pneumoniae (CX-2) (S. pneumoniae (CX-2)) | substance utilization, S. infantis (CX-4) (S. infantis (CX-4)) |
| --- | --- | --- | --- |
| OC[C@H]1O[C@@H](O[C@H]2[C@H](O)[C@@H](O)[C@H](O)O[C@@H]2CO)[C@H](O)[C@@H](O)[C@@H]1O [D-Cellobiose] | + | + | + |
| O=C1O[C@H]([C@@H](O)CO)[C@@H](O)[C@@H]1O [L-Galactonic Acid Lactone] | + | – | – |
| CC(O)C(=O)[O-].[Na+] (stereo not shown) [1% Sodium Lactate, Sodium Lactate] | + | + | + |
| OC[C@H]1O[C@H](OCC2O[C@@H](O)[C@H](O)[C@@H](O)[C@@H]2O)[C@H](O)[C@@H](O)[C@H]1O (stereo partly drawn) [D-Melibiose] | – | + | – |
| OC[C@H]1O[C@H](O[C@H]2[C@H](O)[C@@H](O)[C@H](O)O[C@@H]2CO)[C@H](O)[C@@H](O)[C@@H]1O [D-maltose] | + | + | + |
| Tween 40 | – | + | + |
| O=[Te]([O-])[O-].[K+].[K+] [Potassium Tellurite] | + | + | + |
| Pectin | + | + | + |
| D-Salicin | + | – | – |
| [Cl-].[Li+] [Lithium Chloride] | + | – | – |
| CO[C@H]1/C=C/O[C@@]2(C)Oc3c(C)c([O-])c4c(O)c(cc(O)c4c3C2=O)NC(=O)/C(C)=C\C=C\[C@H](C)[C@H](O)[C@@H](C)[C@@H](O)[C@@H](C)[C@H](OC(C)=O)[C@@H]1C.[Na+] [Rifamycin SV] | + | – | + |
| Dextrin | + | + | + |
| COc1cc(-c2ccc(-n3nc(-c4ccccc4)n[n+]3-c3ccccc3)c(OC)c2)ccc1-n1nc(-c2ccccc2)n[n+]1-c1ccccc1.[Cl-].[Cl-] [Tetrazolium Blue] | + | – | + |
| [Cl-].[Na+] [1% NaCl, NaCl] | + | + | + |
| O=P(O)(O)OC[C@H]1OC(O)(CO)[C@@H](O)[C@@H]1O (stereo partly drawn) [D-Fructose-6-Po4] | + | – | – |
| OC[C@H]1O[C@H](OC[C@H]2O[C@H](OC[C@H]3O[C@H](O[C@]4(CO)O[C@H](CO)[C@@H](O)[C@@H]4O)[C@H](O)[C@@H](O)[C@@H]3O)[C@H](O)[C@@H](O)[C@H]2O)[C@H](O)[C@@H](O)[C@H]1O [Stachyose] | + | + | + |
| OC[C@H]1O[C@H](OC[C@H]2O[C@H](O[C@]3(CO)O[C@H](CO)[C@@H](O)[C@@H]3O)[C@H](O)[C@@H](O)[C@@H]2O)[C@H](O)[C@@H](O)[C@H]1O [D-Raffinose] | – | + | – |
| D-Turanose | – | + | – |
